Assay [1] is described as follows: placebo-controlled, randomized, double-blind, parallel-group human study of red blood cell count, hemoglobin concentration and blood taurine level. It counts as in vivo. The conditions noted are these: male and female adults, one capsule with 20 mg L-ergothioneine per day for four weeks, pre-testing to week 4, versus control food group. The method, then:
In order to evaluate the influence of supplements containing ergothioneine on the red blood cell count in the blood, blood hemoglobin concentration, and blood taurine level, a placebo-controlled, randomized, double-blind, parallel-group study was conducted on subjects including male and female adults (46 subjects in a test food group; 46 subjects in a control food group; 92 subjects in total). In this study, one capsule containing 20 mg ergothioneine (test food) or one capsule not containing ergothioneine (control food) was fed per day for four weeks. The red blood cell count in the blood, blood hemoglobin concentration, and blood taurine level of each subject were measured for pre-testing before starting the study (before starting ingestion of the test food or control food). After ingestion of the test food or control food for four weeks, the red blood cell count in the blood, blood hemoglobin concentration, and blood taurine level of each subject were measured again (testing on week 4). The red blood cell count in the blood and blood hemoglobin concentration were measured by known methods. […] Specifically, the amount of change in the test food group at the time of testing on week 4 was determined by subtracting the measurements (average) of the test food group at the time of pre-testing from the measurements (average) of the test food group at the time of testing on week 4. Similarly, the amount of change in the control food group at the time of testing on week 4 was determined by subtracting the measurements (average) at the time of pre-testing from the measurements (average) at the time of testing on week 4. […]

The conditions of assay [2]: mice orally administered, versus mice not administered; cited from earlier work.

Consider `C[N+](C)(C)[C@@H](Cc1c[nH]c(=S)[nH]1)C(=O)[O-]` [L-ergothioneine], for which, in assay [1], the “change in blood hemoglobin concentration” value is given as “significantly increased”, the “change in blood taurine level (CE-TOF-MS)” value was “significantly increased” and the “change in red blood cell count in the blood” value is “significantly increased”. Further, in assay [2], the peritesticular fat weight entry is “lower” and the “triglyceride (neutral fat) level in plasma” value is on record as “lower”.

(Values after patent US20240180876A1, “COMPOSITION FOR INCREASING RED BLOOD CELLS AND/OR HEMOGLOBIN” (SUNTORY HOLDINGS LIMITED, priority 2021, published 2024).)
